Results published in patent publication US20150139936A1, “DOSAGE AND ADMINISTRATION OF BISPECIFIC SCFV CONJUGATES IN COMBINATION WITH ANTI-CANCER THERAPEUTICS” (Merrimack Pharmaceuticals, Inc., priority 2012, published 2015).

What was measured:
[1] = cited from earlier work
[2] = oral; cited from earlier work
[3] = Pre-clinical combination efficacy of MM-111; conditions: with lapatinib, trastuzumab, paclitaxel or docetaxel

CC(=O)O[C@@]12CO[C@@H]1C[C@H](O)[C@@]1(C)C(=O)[C@H](O)C3=C(C)[C@@H](OC(=O)[C@H](O)[C@@H](NC(=O)OC(C)(C)C)c4ccccc4)C[C@@](O)([C@@H](OC(=O)c4ccccc4)[C@H]21)C3(C)C [docetaxel, 1,7β,10β-trihydroxy-9-oxo-5β,20-epoxytax-11-ene-2α,4,13α-triyl 4-acetate 2-benzoate 13-{(2R,3S)-3-[(tert-butoxycarbonyl)amino]-2-hydroxy-3-phenylpropanoate}]
water solubility [1]: more water soluble than paclitaxel

CS(=O)(=O)CCNCc1ccc(-c2ccc3ncnc(Nc4ccc(OCc5cccc(F)c5)c(Cl)c4)c3c2)o1 [lapatinib]
bioavailability with food consumption [2]: increased

MM-111: bispecific anti-ErbB2/anti-ErbB3 antibody, scFv HSA conjugate, SEQ ID NO:1
combination effect (efficacy) [3]: additive
